# Experiments:
# tumour metastases = test: 18FDG PET-CT scan for metastases in syngeneic B16F10 melanoma mouse model, necropsy as standard of truth; assay type: in vivo, C57B1/6 mice; conditions: six mice, 24 metastases by necropsy; scan without (18FDG only) or with oral PET-CT contrast agent
# Experimental: Syngeneic mouse melanoma model (with tumor metastases dissemination to the lungs) was induced by intravenous injection of B16F10 murine melanoma cancer cells in C57B1/6 mice. 19 days after cells injection, the animals were administered with ^18FDG and a PET-CT scan was performed on each animal. One day later, the PET-CT contrast agent was administered via oral route to the same animals. Then, a second ^18FDG PET-CT scan was performed. The animals were then euthanized and necropsy was performed on each animal. Assessment of the PET-CT scans for co-localization of positive contrast enhancement of ^18FDG and PET-CT contrast agent allowed discriminating metastases from brown adipose tissue (FIGS. 2a and 3a). The ^18FDG signals present in BAT, that could be interpreted as false positives (metastases), were correctly attributed to BAT, improving the specificity and positive predictive value of the PET-CT scan for tumour metastases. This was confirmed by necropsy (FIGS. 2b, c and 3b, c). In total, based on necropsy (standard of truth), the six mice presented 24 metastases (four per mouse on average). […] Without the PET-CT contrast agent, the positive predictive value PPV of the ^18FDG PET-CT scan for metastases was 85% (FIG. 4). By using the PET-CT contrast agent, the PPV was 100%. The CT contrast agent thus improves the PPV of the ^18FDG PET-CT scan by 15%.
# brown adipose tissue = test: 18FDG PET-CT scan for brown adipose tissue in syngeneic B16F10 melanoma mouse model, confirmed by necropsy; assay type: in vivo, C57B1/6 mice; conditions: 12 scans (six with, six without contrast agent); based on 18FDG uptake or on uptake of PET-CT contrast agent
# Experimental: Syngeneic mouse melanoma model (with tumor metastases dissemination to the lungs) was induced by intravenous injection of B16F10 murine melanoma cancer cells in C57B1/6 mice. 19 days after cells injection, the animals were administered with ^18FDG and a PET-CT scan was performed on each animal. One day later, the PET-CT contrast agent was administered via oral route to the same animals. Then, a second ^18FDG PET-CT scan was performed. In total, 12 ^18FDG PET-CT scans were performed (six with and six without the PET-CT contrast agent). The animals were then euthanized and necropsy was performed. Assessment of the PET-CT scans for absence of ^18FDG uptake but presence of contrast enhancement due to the PET-CT contrast agent allowed easy and robust detection of brown adipose tissue, increasing the sensitivity and positive predictive value of the PET-CT scan or BAT. In total, ^18FDG uptake in BAT was present in nine out of 12 PET-CT scans. However, all mice had BAT. Based on ^18FDG uptake, the sensitivity of the PET-CT scan for BAT was 75% (FIG. 5). Based on the uptake of the PET-CT contrast agent, the sensitivity for BAT was 100%. Using the PET-CT contrast agent, the sensitivity of the PET-CT scan for BAT in mice was thus improved by 25%.
compound,measurement,setting,value
"O=C[C@H]([18F])[C@@H](O)[C@H](O)[C@H](O)CO [^18FDG, 2-[fluorine-18]fluoro-2-deoxy-D-glucose]",positive predictive value PPV of the 18FDG PET-CT scan for metastases,tumour metastases,85%
same,sensitivity of the 18FDG PET-CT scan for BAT,brown adipose tissue,75%

# — patent publication US20230284994A1, “PET-CT IMAGING METHODS, CONTRAST AGENTS AND PHARMACEUTICAL COMPOSITIONS FOR USE IN SAID IMAGING METHODS” (ADIPOSS SÁRL, priority 2020, published 2023)
